Columns and labels:
Monilinia fructicola = assay: Cherry inoculation assays 1 and 3: Monilinia fruit rot of ‘Sweet Valentine’ cherries, dip treatment; assay type: in vivo; settings: Assay 1, cherries, cumulative after 13 days; Nil 50%; reductions not significant
Procedure: (§1) Fruit-based screening assays were conducted in laboratories at the Plant and Food Research Ruakura Research Centre, Hamilton, New Zealand (PFR). PFR assays focused on dip treatment application of YBCA5 and fungicide controls.
(§2) Fruit for Monilinia fructicola and Botrytis spp. inoculation assays were carried out on sweet cherries (Prunus avium ‘Sweet Valentine’) that were picked at the harvest mature stage and sourced from the PFR Clyde Research Orchard in Central Otago on 8 Jan. 2016 for fruit based assays 1 and 2. A second harvest was carried out on 13 Jan. 2016 for fruit based assays 3 and 4.
(§3) Each cherry was then subjected to a double wash process. Wash one consisted of 10 minutes in tap water on a rotary shaker (110 rpm) followed by a five minute wash in SDW (Wash 2). […]
A Monilinia fructicola culture (isolate code MFGQ3), which had been originally isolated from an infected peach tree located in the Hamilton region during 1998, was used for the spray inoculation assays included in this section (Ruakura based assay). […] This stock suspension was then filtered using a 70 μm cell strainer (to remove mycelial fragments), the concentration determined using a haemocytometer and then adjusted, by dilution with SDW+Tw 80 (0.05%) to a final concentration of 1×10^4 conidia/mL. […]

Botrytis spp. = assay: Cherry inoculation assays 2 and 4: Botrytis spp. fruit rot of ‘Sweet Valentine’ cherries, dip treatment; assay type: in vivo; settings: Assay 2, cherries, cumulative after 13 days; nil 35%; not significantly reduced (P>0.05)
Procedure: as §1, §2, §3
A Botrytis spp. culture (isolate code 09-2), which had been originally isolated from an infected kiwifruit located in the Bay of Plenty region during the 2000s, was used for the spray inoculation assays included in this section carried out on cherries. […] This stock suspension was then filtered using a 70 μm cell strainer (70 μm mesh) to remove mycelial fragments, the concentration determined using a haemocytometer and then adjusted, by dilution with SDW+Tw 80 (0.01% v/v) to a final concentration of 1×10^5 conidia/mL. […]

## CC(C)NC(=O)N1CC(=O)N(c2cc(Cl)cc(Cl)c2)C1=O [iprodione]
Monilinia fructicola
  incidence of Monilinia fruit rot: 22%
Botrytis spp.
  incidence of Botrytis spp. fruit rot: 22%

From US12421489B2, “Biological control of plant pathogenic microorganisms” (priority 2016, dated 2025)
